# Test results taken from patent publication US20090041806A1, “USE OF PRODRUGS OF GABA ANALOGS, ANTISPASTICITY AGENTS, AND PRODRUGS OF GABA B RECEPTOR AGONISTS FOR TREATING SPASTICITY” (XenoPort, Inc., priority 2007, published 2009).
# Experiments:
# [1] = oral baclofen; cited from earlier work
# [2] = oral; 2 mg t.i.d. R-baclofen equivalent to 10 mg t.i.d. racemic baclofen; cited from earlier work
# [3] = Randomized, crossover, fed/fasted single-dose pharmacokinetic study of oral sustained release tablets of compound (7) in healthy adult subjects; settings: for AUC of compound (7) in blood as percent of the corresponding AUC of gabapentin in blood / maximum intact prodrug concentration as percent of the corresponding peak gabapentin concentration: oral tablets
# Description: A randomized, crossover, fed/fasted single-dose study of the safety, tolerability, and pharmacokinetics of oral administration of 1-{[α-isobutanoyloxyethoxy)carbonyl]aminomethyl}-1-cyclohexane acetic acid (7) in healthy adult subjects was conducted. The oral sustained release dosage form of Example 4 was used in this study. The study was designed to evaluate the performance of this formulation in humans in comparison with the commercial gabapentin capsule formulation (Neurontin®, Pfizer). Twelve healthy adult volunteers (7 males and 5 females) participated in the study. Mean body weight was 75.6 kg. All subjects received two different treatments in a random order with a one-week washout between treatments. The two treatments were: a single oral dose of Example 4 tablets (2×600 mg) after an overnight fast; and a single oral dose of Example 4 tablets (2×600 mg) after a high fat breakfast.
# Blood and plasma samples were collected from all subjects prior to dosing, and at 0.5, 1, 1.5, 2, 3, 4, 6, 8, 12, 18, 24, and 36 hours after dosing. Urine samples were collected from all subjects prior to dosing, and complete urine output was obtained at the 0-4 h, 4-8 h, 8-12 h, 12-18 h, 18-24 h, and 24-36 h intervals after dosing. Blood samples were quenched immediately with methanol and stored frozen at […] Sample aliquots were prepared for analysis of gabapentin and compound (7) using sensitive and specific LC/MS/MS methods.
# [4] = Uptake of gabapentin following intracolonic administration of gabapentin or gabapentin prodrugs in rats; format: in vivo; settings: rat, dose equivalent to 25 mg gabapentin per kg
# Description: Sustained release oral dosage forms, which release drug slowly over periods of 6-24 hours, generally release a significant proportion of the dose within the colon. […] This experiment was conducted to assess the suitability of gabapentin prodrugs for use in oral sustained release dosage forms.
# Rats were obtained commercially and were pre-cannulated in the both the ascending colon and the jugular vein. Animals were conscious at the time of the experiment. All animals were fasted overnight and until 4 hours post-dosing. […]
# were administered as a solution (in water or PEG 400) directly into the colon via the cannula at a dose equivalent to 25 mg of gabapentin per kg. […] Blood samples were analyzed as described below. […]
# were used. […] The peaks were integrated using Analyst 1.1 quantitation software.
# [5] = cited from earlier work
# [6] = Uptake of R-baclofen following oral administration of R-baclofen prodrugs to cynomolgus monkeys; settings: cynomolgus monkey, in vivo
# Description: (5 mg baclofen-eq/kg) were administered by oral gavage to groups of four male cynomolgus monkeys as either an aqueous solution or suspension in 0.5% methylcellulose/0.1% Tween-80 respectively. […] The oral bioavailability of both prodrugs: • (sodium 4-{[(1S)-isobutanoyloxyisobutoxy]carbonylamino}-(3R)-(4-chlorophenyl)-butanoate; and • 4-{[(1S)-isobutanoyloxyisobutoxy]carbonylamino}-(3R)-(4-chlorophenyl)-butanoic acid;
compound,measurement,setting,value
"NCC(CC(=O)O)c1ccc(Cl)cc1 (racemic) [Baclofen, (±)-4-amino-3-(4-chlorophenyl)butanoic acid]",elimination half-life,[1],3 to 4 h
"NC[C@H](CC(=O)O)c1ccc(Cl)cc1 [R-baclofen, R-(−)-baclofen]",potency of orally administered R-baclofen relative to orally administered racemic baclofen,[2],about 5 fold
"CC(OC(=O)NCC1(CC(=O)O)CCCCC1)OC(=O)C(C)C (stereo not drawn) [compound (7), 1-{[(α-isobutanoyloxyethoxy)carbonyl]aminomethyl}-1-cyclohexane acetic acid]",maximum concentration of intact compound (7) in blood,"[3]; human, in vivo, po",0.040 µg/mL
same,AUC of compound (7) in blood as percent of the corresponding AUC of gabapentin in blood,[3]; fasted subjects,0.3%
same,maximum intact prodrug concentration as percent of the corresponding peak gabapentin concentration,[3]; fasted subjects,approximately 1.0%
same,AUC of compound (7) in blood as percent of the corresponding AUC of gabapentin in blood,[3]; fed subjects,less than 0.1%
same,maximum intact prodrug concentration as percent of the corresponding peak gabapentin concentration,[3]; fed subjects,approximately 0.3%
same,area under the gabapentin plasma concentration vs. time curve (AUC) relative to colonic administration of gabapentin itself,[4],greater than 10 fold
same,maximum plasma concentration of gabapentin (Cmax) relative to colonic administration of gabapentin itself,[4],greater than 10 fold
NCC1(CC(=O)O)CCCCC1 [gabapentin],typical Tmax of immediate release gabapentin,[5],2 to 4 h
CC(C)C(=O)O[C@@H](OC(=O)NC[C@H](CC(=O)[O-])c1ccc(Cl)cc1)C(C)C.[Na+] [sodium 4-{[(1S)-isobutanoyloxyisobutoxy]carbonylamino}-(3R)-(4-chlorophenyl)-butanoate],oral bioavailability as R-baclofen,[6],greater than 80%
